The subject of one data set is MEF cells. Description: Clonogenic cell survival assay after ionizing radiation, MEFs. It counts as cell-based, mouse. Also on record: cell survival after exposure to IR (clonogenic): dose or concentration left out as unconfirmed.
The test system of the next data set is Suv39h1/2−/− cells. Kind of data set: Clonogenic cell survival assay after ionizing radiation, Suv39h1/Suv39h2 double knockout MEFs. It counts as cell-based, mouse.
In another data set the test system is H3K9me3. Kind of data set: Western blot of H3K9me3 in Suv39h1/2−/− MEFs (FIG. 4A). It counts as cell-based, mouse. The settings on record: Suv39h1/2−/− cells, DMOG 100 μM/2hours. The protocol:
Cell lysates and Western blot analysis: Antibodies used: mHif1α (Santa Cruz Biotechnology, CA); hHIF1α (Abcam, CA); H3K9me3 (Millipore, N.Y.); β-actin (Cell Signaling Technology, Mass.); CHD4 and MTA3 (Bethyl Laboratories, Tex.); Suv39h1 (Novus, CA). To prepare nuclear lysates, cells were resuspended in 500 μl buffer A (10 mM Tris, pH8.0/1 mM EDTA, pH8.0/150 mM NaCl/0.5% NP-40/1 mM PMSF/5 μg/ml leupeptin/20 μg/ml aprotinin), incubated on ice for 15 min and centrifuged at 500 g for 5 min at 4° C. Supernatant was removed and the pellet resuspended in buffer B (20 mM Hepes, pH7.9/400 mM NaCl/1 mM EDTA/0.5 mM DTT/1 mM PMSF/5 μg/ml leupeptin/20 μg/ml aprotinin), incubated on ice for 15 min and cleared by centrifugation (21,000 g for 5 min at 4° C.). For western blots, equal amounts of protein (Bradford Protein Assay kit, Bio-Rad Laboratories, CA) were separated by electrophoresis and transferred to nitrocellulose membranes (Bio-Rad Laboratories, CA). Membranes were blocked with Odyssey Blocking Buffer (Li-Cor, NB), incubated with primary antibodies for 3 h, and washed in PBST (PBS and 0.1% Tween-20) followed by goat anti-mouse IR Dye-800CW or goat anti-rabbit IR Dye-680CW secondary antibodies (Li-Cor, NB). Imaging was performed using the Li-Cor Odyssey Near Infra Red System, and analyzed using the Odyssey software system 3.0 package (Li-Cor, NB).

A short description of data set [1]: Toxicity of DMOG alone in mice. The note with it: DMOG 100 mg/kg ip. Format: in vivo, mouse. The protocol:
Mice: This study was carried out in strict accordance with the recommendations in the Guide for the Care and Use of Laboratory Animals of the National Institutes of Health. The protocol was reviewed and approved by the Dana-Farber Cancer Institute's Animal Care and Use Committee (Protocol number 06-029). All efforts were made to minimize suffering. Male Balb/c mice were purchased from Taconic (NY, USA) and C57BL/6J mice were purchased from The Jackson Laboratory (ME, USA). For total body irradiation (TBI), mice were irradiated at the dose rate of 110 cGy/min using a ^137Cs source (Gammacell® 40Exactor, Best Theratronics, Ottawa, Canada). DMOG (dissolved in saline) or saline was administered IP before and after TBI. The mice were given normal water that had undergone reverse osmosis and powdered food (Purina Pico Lab Chow) after TBI. The animals were closely inspected after TBI for ill-health and the moribund animals were sacrificed according to the guidelines in our approved ACUC protocol. The Kaplan-Meier survival curves were plotted for saline-treated and DMOG-treated cohorts. The statistical analysis of the Kaplan-Meier survival curves was performed with Graph Pad Prism Version 5 using Mantel Log-rank test.
The preliminary observation on the radiation mitigating effects of DMOG in primary fibroblast cell lines prompted the inventors to initiate testing of DMOG in a murine model. […]

Data set [2] deals with MTA3. It counts as cell-based. The note with it: MCF-7 cells; CoCl2 200 μM 8 hr, FIG. 8E; DMOG only stated.
The next data set deals with CHD4. It counts as cell-based. The settings on record: MCF7 cells; CoCl2 200 μM time course, FIG. 8F; DMOG only stated.
Data set [3] relates to MTA3. It counts as cell-based. The settings on record: MCF7 cells; CoCl2 200 μM time course, FIG. 8F; DMOG only stated.
The test system of the next data set is endogenous KDMs. Description: H3K9me3 immunofluorescent staining in vector-transfected HEK293T cells (FIG. 10B). Format: cell-based. The settings on record: DMOG 1 mM 24 hrs.

SMILES strings stand for the structures.

As to `COC(=O)CNC(=O)C(=O)OC` [DMOG, dimethyloxalylglycine], the “cell survival after exposure to IR (clonogenic)” value in the data set with MEF cells (MEF cells incubated with DMOG then irradiated, FIG. 3) is on record as “increased cell survival”. In addition, the “radioresistance (clonogenic survival)” value is on record as “increased radioresistance” with MEF cells (MEFs expressing a non-specific shRNA, DMOG 1 mM, FIG. 11A) and “small, but significant increase in radioresistance” in the data set on MEF cells (Suv39h1/h2+/+ cells, FIG. 4B). For the same compound, the “radiosensitivity (clonogenic survival)” value in the data set with MEF cells (MEFs, DMOG 1 mM, 1 hr before IR to 24 hr after, FIG. 7C) is on record as “significant decrease in radiosensitivity”. In the data set with MEF cells (MEFs, DMOG 48-72 hours post-irradiation, FIG. 5), the “protection when added after irradiation (radiation mitigation, clonogenic survival)” value is on record as “significant protection”. Also, the “protective effect (clonogenic survival) in SuvDKO MEFs versus normal MEFs” value in the data set with Suv39h1/2−/− cells (MEF-SuvDKO, DMOG 1 mM, FIG. 11C) is “significantly reduced”. Moreover, in the data set with Suv39h1/2−/− cells (Suv39h1/h2−/− cells compared to +/+, FIG. 4B), the “radioprotective effect (clonogenic survival)” value is “much larger radioprotective effects”. Moreover, the “levels of H3K9me3 (Western blot)” value in the data set on H3K9me3 is on record as “increased the levels of H3K9me3 in Suv39h1/2−/− cells to a level similar to those seen in Suv39h1/1+/+ cells”. Moreover, the “toxicity of DMOG alone in mice” value in data set [1] (no irradiation) is listed as “does not cause any toxicity”. Also, the “mice surviving at 30 days, DMOG alone” value in data set [1] (no irradiation (data not shown)) stood at 100%. Also, the “MTA3 mRNA levels” value in the data set with MTA3 [2] is on record as “increased”. In addition, the CHD4 protein levels entry in the data set with CHD4 is “increased”. Also, the MTA3 protein levels entry in the data set with MTA3 [3] was “increased”. For the same compound, in the data set on endogenous KDMs, the “H3K9me3 methylation in cells expressing vector” value is “increased H3K9me3 methylation”.

(Values after patent US20130267594A1, “PROLYL HYDROXYLASE INHIBITORS AS RADIATION MITIGATORS AND RADIATION PROTECTORS” (priority 2010, published 2013).)
